Measurements from patent US12435032B2, “L-γ-methyleneglutamine compounds and methods of use” (University of Mississippi, priority 2019, dated 2025).
“Also recorded” adds a separate entry of the source. Read-outs that look alike come from different tables or passages of the source.

Tests used:
[1] = system: MCF-7 (ER+/PR+/HER2−) breast cancer cells; test: Growth inhibition of MCF-7 cells (Hoechst 33342 fluorescence vs non-treated wells); assay type: cell-based; conditions: dose-response 0.32-320 μM
Experimental: (§1) Olaparib was chosen because it is one of a few FDA-approved chemotherapeutics for triple-negative breast cancer.
(§2) Cells were incubated for 15 minutes at 37° C.

[2] = system: triple-negative MDA-MB-231 breast cancer cells; test: Growth inhibition of MDA-MB-231 cells; assay type: cell-based; conditions: for IC50: Homo sapiens; for IC50 / Growth Inhibition IC50: dose-response 0.32-320 μM; for growth inhibition potency compared with olaparib: MDA-MB-231, throughout testing (24 h and 72 h)
Experimental: as §1, §2

[3] = system: SK-BR-3 (ER−/PR−/HER2+) breast cancer cells; test: Growth inhibition of SK-BR-3 cells; assay type: cell-based; conditions: Homo sapiens, dose-response 0.32-320 μM
Experimental: as §1, §2

[4] = system: triple-negative MDA-MB-231 breast cancer cells; test: cells; conditions: Homo sapiens
[5] = system: SK-BR-3 breast cancer cells; test: Cytotoxicity (cell death, propidium iodide) in SK-BR-3 cells; assay type: cell-based; conditions: for EC50: Homo sapiens, dose-response 0.32-320 μM
[6] = system: MCF-10A non-cancerous breast cells; test: Cytotoxicity (cell death, propidium iodide) in MCF-10A cells; assay type: cell-based
Experimental: (§3) To assess the selectivity of cytotoxicity for cancer cells, all drugs and compounds were screened against MCF-10A, non-cancerous breast cells.
as §2

[7] = as above; assay type: cell-based; conditions: human, MCF-10A non-cancerous breast cells
Experimental: as §3, §2

[8] = system: MCF-7 breast cancer cells; test: Cytotoxicity (cell death, propidium iodide) in MCF-7 cells; assay type: cell-based; conditions: for EC50: Homo sapiens, MCF7
[9] = system: MCF-10A non-cancerous breast cells; test: Growth inhibition of MCF-10A cells (negative control line); assay type: cell-based; conditions: Homo sapiens, dose-response 0.32-320 μM
Experimental: as §1, §2

newborn rat spinal cord = conditions: cited from earlier work
[10] = system: central nervous system (CNS); conditions: cited from earlier work
[11] = Homo sapiens, MCF7, 24 h, MCF-7, 24 h exposure
[12] = Homo sapiens, MCF7, 72 h, MCF-7, 72 h exposure
[13] = MDA-MB-231, 24 h, read-out: Cytotoxicity EC50
[14] = MDA-MB-231, 72 h, read-out: Cytotoxicity EC50
[15] = SK-BR-3, 72 h / after the first 24 h
[16] = MCF-7, 24 h exposure, dose-response 0.32-320 μM, read-out: Cytotoxicity EC50
[17] = MCF-7, 72 h exposure, dose-response 0.32-320 μM, read-out: Cytotoxicity EC50
[18] = MDA-MB-231, read-out: cytotoxic EC50

Row | SMILES | IC50 [1, 11] [µM] | IC50 [1, 12] [µM] | IC50 ([2]; MDA-MB-231, 24 h exposure) [µM] | IC50 ([2]; MDA-MB-231, 72 h exposure) [µM] | IC50 ([3]; SK-BR-3, 24 h exposure) [µM] | IC50 ([3]; SK-BR-3, 72 h exposure) [µM] | EC50 [4, 13] [µM] | EC50 [4, 14] [µM] | EC50 ([5]; SK-BR-3, 24 h exposure) [µM] | EC50 ([5]; SK-BR-3, 72 h exposure) [µM] | cytotoxicity EC50 [5, 15] | EC50 at 24 h ([7]; 24 h exposure) [µM] | EC50 at 24 h ([7]; head prints 24 h) [µM] | EC50 [8, 16] [µM] | EC50 [8, 17] [µM] | IC50 ([9]; 24 h exposure) [µM] | IC50 ([9]; 72 h exposure) [µM] | EC50 for MCF-7 cytotoxicity ([8]; MCF-7, 72 h exposure) | Growth Inhibition IC50 ([2]; MDA-MB-231, 24 h exposure) | Growth Inhibition IC50 ([2]; MDA-MB-231, 72 h exposure) | further results
1 | C=C(C[C@H](N)C(=O)O)C(=O)NCc1ccc(F)cc1 [Compound 5, (S)-2-amino-4-((4-fluorobenzyl)carbamoyl)pent-4-enoic acid] | 590 | 85.3 | 350 | 339 | 3.9 | 4.5 | 265 | 262 | > 1000 | 0.4 | cell death was apparent | 796 | > 1000 | > 1000 | 54.5 | > 1000 | > 1000 | – | – | – | growth inhibition potency compared with olaparib [2]: equipotent to olaparib; cytotoxicity ([5]; SK-BR-3, 24 h exposure): devoid of toxicity; cytotoxicity EC50 ([6]; within the first 24 h): EC50 below the millimolar range
2 | O=C(c1cc(Cc2n[nH]c(=O)c3ccccc23)ccc1F)N1CCN(C(=O)C2CC2)CC1 [Olaparib, reference compound] | > 1000 | – | 161 | 154 | 1.6 | 1.1 | 61.2 | 97.1 | > 1000 | 0.1 | – | 511 | > 1000 | > 1000 | 26.5 | > 1000 | > 1000 | micromolar EC50 | – | – | IC50 ([1]; MCF-7, 72 h exposure): 108 µM; EC50 [4, 18]: ≤ 100 µM; cytotoxicity ([5]; SK-BR-3, 24 h exposure): neither tamoxifen nor olaparib were cytotoxic; EC50 at 24 h ([7]; within the first 24 h): 268 to 511 µM; EC50 for cytotoxicity ([8]; MCF-7, 24 h exposure): neither tamoxifen nor olaparib were cytotoxic
3 | C=C(C[C@H](N)C(=O)O)C(=O)Nc1ccc(Cl)cc1 [Compound 10, (S)-2-amino-4-((4-chlorophenyl)carbamoyl) pent-4-enoic acid] | 397 | 171 | 867 | 712 | 78.7 | 4 | > 1000 | > 1000 | 262 | > 1000 | much reduced toxicity | > 1000 | > 1000 | 205 | 93.2 | > 1000 | > 1000 | – | poorer potency than both tamoxifen or olaparib | poorer potency than olaparib | –
4 | C=C(C[C@H](N)C(=O)O)C(=O)NCc1ccc([N+](=O)[O-])cc1 [Compound 6, (S)-2-amino-4-((4-nitrobenzyl)carbamoyl) pent-4-enoic acid] | 457 | 534 | 216 | 368 | 12.8 | 3.2 | 150 | 270 | 0.3 | 0.4 | – | > 1000 | > 1000 | 485 | 20.4 | > 1000 | > 1000 | – | potency that was commensurate to tamoxifen | longer-term performance commensurate to olaparib; also recorded: as efficacious as olaparib | cytotoxicity EC50 ([5]; SK-BR-3, at 24 or 72 h): commensurate EC50's at 24 or 72 h
5 | C=C(C[C@H](N)C(=O)O)C(=O)Nc1ccc(F)cc1 [Compound 9, (S)-2-amino-4-((4-fluorophenyl)carbamoyl) pent-4-enoic acid] | 414 | 76 | 652 | 419 | 11.4 | 4.7 | > 1000 | 450 | 0.2 | 0.1 | – | > 1000 | > 1000 | 161 | 2.3 | > 1000 | > 1000 | significantly lower than tamoxifen | – | – | growth inhibition potency compared with olaparib [2]: equipotent to olaparib; cytotoxicity EC50 ([5]; SK-BR-3, at 24 or 72 h): commensurate EC50's at 24 or 72 h
6 | C=C(C[C@H](N)C(=O)O)C(=O)NC1CC1 [Compound 7, (S)-2-amino-4-(cyclopropylcarbamoyl) pent-4-enoic acid] | 231 | 416 | 649 | 922 | 314 | 0.6 | 933 | > 1000 | 272 | > 1000 | much reduced toxicity | > 1000 | > 1000 | 64.1 | 508 | > 1000 | > 1000 | – | – | poorer potency than olaparib | Growth Inhibition IC50 ([1]; MCF-7, 72 h exposure): significantly less potent than tamoxifen; EC50 ([8]; MCF-7, 24 h exposure, read-out: EC50 for cytotoxicity): 64 µM
7 | C=C(C[C@H](N)C(=O)O)C(=O)N1CCCCC1 [Compound 8, (S)-2-amino-4-(piperidine-1-carbonyl) pent-4-enoic acid] | 434 | 606 | 685 | 813 | 133 | 0.6 | > 1000 | > 1000 | 0.1 | > 1000 | much reduced toxicity | > 1000 | > 1000 | 197 | 198 | > 1000 | > 1000 | did not change | poorer potency than both tamoxifen or olaparib | poorer potency than olaparib | Growth Inhibition IC50 ([1]; MCF-7, 72 h exposure): significantly less potent than tamoxifen
8 | C=C(C[C@H](N)C(=O)O)C(=O)O [Compound 2, L-γ-methyleneglutamic acid] | – | – | – | – | – | – | – | – | – | – | – | – | – | – | – | – | – | – | – | – | potency relative to L-glutamate as a depolarizing agent (newborn rat spinal cord): 10 times; central nervous system (CNS) inhibitory activity [10]: strong
9 | C=C(C[C@H](N)C(=O)O)C(N)=O [Compound 1, (S)-2-amino-4-carbamoylpent-4-enoic acid] | 459 | 609 | 141 | 585 | 7.9 | 11.3 | 8.9 | 320 | 0.2 | 2 | – | > 1000 | > 1000 | 152 | 3 | > 1000 | > 1000 | significantly lower than tamoxifen | potency that was commensurate to tamoxifen | longer-term performance commensurate to olaparib; also recorded: as efficacious as olaparib | cytotoxicity EC50 ([5]; SK-BR-3, at 24 or 72 h): commensurate EC50's at 24 or 72 h
10 | C=C(C[C@H](N)C(=O)O)C(=O)NCc1ccccc1 [Compound 4, (S)-2-amino-4-(benzylcarbamoyl) pent-4-enoic acid] | > 1000 | 197 | 481 | 649 | 74.2 | 0.6 | 374 | 980 | 0.1 | > 1000 | much reduced toxicity | > 1000 | 563 | 664 | 218 | > 1000 | > 1000 | – | – | poorer potency than olaparib | cytotoxicity EC50 ([6]; after the first 24 h): EC50 in the micromolar range
11 | CC/C(=C(\c1ccccc1)c1ccc(OCCN(C)C)cc1)c1ccccc1 [Tamoxifen, reference compound] | – | – | – | – | – | – | 26 | 30.9 | > 1000 | 0.3 | – | 268 | > 1000 | > 1000 | – | – | – | micromolar EC50 | – | – | EC50 [4, 18]: ≤ 100 µM; cytotoxicity ([5]; SK-BR-3, 24 h exposure): neither tamoxifen nor olaparib were cytotoxic; EC50 at 24 h ([7]; within the first 24 h): 268 to 511 µM; EC50 for cytotoxicity ([8]; MCF-7, 24 h exposure): neither tamoxifen nor olaparib were cytotoxic
